Several values for one entry are separate records, joined by “and”; a condition that tells them apart may be missing. Equal values may be shown once. Read-outs that look alike come from different tables or passages of the source.

One data set has as its target T790M EGFR kinase (Homo sapiens, UniProt P00533, T790M). Nature of the data set: T790M EGFR kinase assay (ADP-glo). It is filed as biochemical. Background: ADP-Glo turns the ADP formed in a reaction into a luminescent signal.
A further data set has as its target T1, Peroxiredoxin (Prx) (Homo sapiens, UniProt Q06830).
T1 construct: purchased SigmaAldrich
Nature of the data set: Peroxiredoxin activity (summary Table 27). The format is biochemical. The following applies: disrupts active site structure.

A further data set concerns the target T2, Recombinant human Trx (Homo sapiens, UniProt P10599).
T2 sequence (P10599 1-105): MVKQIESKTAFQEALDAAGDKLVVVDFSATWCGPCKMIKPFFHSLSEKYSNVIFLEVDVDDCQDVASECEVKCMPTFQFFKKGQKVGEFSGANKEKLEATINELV
The format is biochemical. Details: 6xHis (N); purchased Sigma (Trx); American Diagnostica (bovine TrxR). As to conditions: Reaction B; disulfide 0.5 mM. On the procedure: See, Luthman M and Holmgren A. Rat liver thioredoxin and thioredoxin reductase: purification and characterization. […] All disulfides were added to reactions as 10x solutions in buffer. The total volume of each reaction was 0.1 mL. Reactions were initiated by the addition of TrxR and were incubated at 25° C. for 40 minutes. Reactions were analyzed using a Molecular Devices SpectraMax Plus UV/vis plate reader and the activity was calculated using a 4 minute linear portion of each assay.

Data set [1] concerns the target T3, recombinant human farnesyltransferase (Homo sapiens, UniProt P49354+P49356).
T3 construct: purchased Abcam
The experiment in a line: Farnesyltransferase Dansyl-GCVLS fluorescence assay. The format is biochemical. The following applies: 25 nM FTase, 3 μM Dansyl-GCVLS, 25° C. Here is the method:
Tavocept-inhibited human farnesyltransferase-mediated transfer of farnesylpyrophosphate to the cysteine residue in a danyslated peptide substrate of sequence glycine-cysteine-valine-leucine-serine (designated-Dansyl-GCVLS) in vitro. See, FIG. 79. The assay reactions contained 25 nM recombinant human farnesyltransferase (Abcam), 10 μM farnesylpyrophosphate (SigmaAldrich), 3 μM Dansyl-GCVLS (NeoBioScience) in Tris buffer (50 mM, pH 7.5) containing 5 mM MgCl2, 10 μM ZnCl2, and 0.2% octyl-β-D-glucopyranoside. Total assay volumes were 50 μL and the reactions were initiated by the addition of FTase (5 μL of 250 nM stock was added to 45 μL of assay components listed above). The excitation wavelength was 340 nm (a 340 nm filter with 25 nm bandpass) and the emission wavelength was […] (505 nm filter with 20 nm bandpass) and the assay temperature was 25° C. Progress curves of the transfer of the farnesylpyrophosphate to the Dansyl-GCVLS substrate are shown in FIG. 79, Panel A and relative rates of the progress curve were determined and are shown in FIG. 79, Panel B.

Another data set addresses T4, TrxR/Trx system (Homo sapiens, UniProt P10599).
T4 construct: 6xHis (N); purchased Sigma (Trx); American Diagnostica (bovine TrxR)
T4 sequence (P10599 1-105): T2 sequence (P10599 1-105)
Nature of the data set: NADPH oxidation by TrxR and Trx. The format is biochemical. As to conditions: increasing concentrations of the substance.

The target of data set [2] is T5, Mesenchymal Epithelial Transition (MET) Factor Kinase (Homo sapiens, UniProt P08581).
T5 construct: the kinase domain of MET (residues 956-end) was used in these experiments; purchased SignalChem M52-18G-10; host or cells: Sf9 insect cells
The experiment in a line: MET kinase inhibition (summary Table 27). The format is biochemical. As to conditions: modification of non-active site cysteine(s).

The conditions of data set [3]: cited from earlier work.

Sequence of T790M EGFR kinase (P00533 25-1210 T790M): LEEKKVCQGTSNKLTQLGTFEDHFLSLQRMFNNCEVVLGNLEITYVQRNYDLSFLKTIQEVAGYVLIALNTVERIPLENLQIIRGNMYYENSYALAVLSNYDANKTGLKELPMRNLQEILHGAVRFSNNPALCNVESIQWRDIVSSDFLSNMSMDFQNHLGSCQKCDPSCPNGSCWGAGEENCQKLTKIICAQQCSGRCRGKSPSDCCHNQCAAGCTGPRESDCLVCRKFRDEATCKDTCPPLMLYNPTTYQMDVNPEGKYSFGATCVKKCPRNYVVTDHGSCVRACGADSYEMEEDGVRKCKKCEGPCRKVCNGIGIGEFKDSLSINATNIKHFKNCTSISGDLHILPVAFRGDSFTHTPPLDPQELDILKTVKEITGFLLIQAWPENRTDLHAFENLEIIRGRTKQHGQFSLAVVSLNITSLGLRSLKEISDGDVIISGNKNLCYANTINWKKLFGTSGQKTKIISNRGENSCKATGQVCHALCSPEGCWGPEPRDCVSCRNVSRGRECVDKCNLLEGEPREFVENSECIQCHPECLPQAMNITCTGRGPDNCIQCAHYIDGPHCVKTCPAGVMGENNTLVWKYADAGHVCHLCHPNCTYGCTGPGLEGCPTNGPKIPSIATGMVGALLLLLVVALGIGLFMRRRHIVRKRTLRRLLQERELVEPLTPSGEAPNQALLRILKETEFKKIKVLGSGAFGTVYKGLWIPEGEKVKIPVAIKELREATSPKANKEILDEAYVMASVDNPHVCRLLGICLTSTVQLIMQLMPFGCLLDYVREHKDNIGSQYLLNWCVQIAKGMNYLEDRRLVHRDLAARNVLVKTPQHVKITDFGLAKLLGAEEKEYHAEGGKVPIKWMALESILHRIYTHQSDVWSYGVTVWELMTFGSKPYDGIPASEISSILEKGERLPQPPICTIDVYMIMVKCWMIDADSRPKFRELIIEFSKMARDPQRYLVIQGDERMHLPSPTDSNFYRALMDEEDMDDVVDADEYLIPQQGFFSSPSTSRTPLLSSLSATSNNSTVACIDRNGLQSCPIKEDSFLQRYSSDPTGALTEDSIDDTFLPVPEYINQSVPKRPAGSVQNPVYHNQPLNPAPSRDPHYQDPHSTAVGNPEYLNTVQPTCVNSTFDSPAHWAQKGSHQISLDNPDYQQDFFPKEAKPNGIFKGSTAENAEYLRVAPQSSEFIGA
T5 sequence (P08581 956-1390 limits assumed): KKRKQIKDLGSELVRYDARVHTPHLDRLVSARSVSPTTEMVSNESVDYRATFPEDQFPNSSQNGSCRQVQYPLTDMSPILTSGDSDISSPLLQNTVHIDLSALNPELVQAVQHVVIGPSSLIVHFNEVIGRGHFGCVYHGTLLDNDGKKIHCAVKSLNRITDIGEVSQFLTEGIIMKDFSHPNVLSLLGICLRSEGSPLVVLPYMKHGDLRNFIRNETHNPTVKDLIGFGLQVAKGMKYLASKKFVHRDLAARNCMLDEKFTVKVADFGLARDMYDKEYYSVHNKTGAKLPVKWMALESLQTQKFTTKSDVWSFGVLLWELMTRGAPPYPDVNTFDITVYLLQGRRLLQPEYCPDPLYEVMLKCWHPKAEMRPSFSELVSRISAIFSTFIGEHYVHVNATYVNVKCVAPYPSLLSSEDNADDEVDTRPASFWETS
T1 sequence (Q06830 whole entry): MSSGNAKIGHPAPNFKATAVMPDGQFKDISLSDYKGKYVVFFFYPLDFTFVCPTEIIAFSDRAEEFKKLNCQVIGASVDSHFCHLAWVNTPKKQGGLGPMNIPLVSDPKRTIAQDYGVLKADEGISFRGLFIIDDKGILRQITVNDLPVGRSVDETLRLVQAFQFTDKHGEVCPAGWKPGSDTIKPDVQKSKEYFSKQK
T3 sequence (P49356 whole entry, one chain of several): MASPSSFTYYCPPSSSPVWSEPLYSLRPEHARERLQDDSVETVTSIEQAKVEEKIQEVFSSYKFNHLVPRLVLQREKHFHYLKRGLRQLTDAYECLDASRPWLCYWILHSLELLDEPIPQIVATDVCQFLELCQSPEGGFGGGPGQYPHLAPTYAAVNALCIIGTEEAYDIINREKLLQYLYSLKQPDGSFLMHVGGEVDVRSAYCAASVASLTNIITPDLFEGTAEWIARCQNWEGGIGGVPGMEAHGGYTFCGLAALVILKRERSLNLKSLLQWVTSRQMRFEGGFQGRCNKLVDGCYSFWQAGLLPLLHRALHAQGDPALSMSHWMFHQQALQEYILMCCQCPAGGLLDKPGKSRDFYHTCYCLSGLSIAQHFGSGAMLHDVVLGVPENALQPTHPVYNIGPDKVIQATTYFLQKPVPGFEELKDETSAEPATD

On to `O=S(=O)([O-])CCSSCCS(=O)(=O)[O-].[Na+].[Na+]` [Tavocept, disodium 2,2′-dithio-bis-ethane sulfonate], for which the “potentiation of Erlotinib inhibition of T790M EGFR kinase” value at T790M EGFR kinase (10 μM ATP) is on record as “strongly potentiated”. For the same compound, the IC50 (commonly the concentration needed to halve the response being measured) is > 40 mM at T790M EGFR kinase (10 μM ATP, read-out: IC50 on T790M EGFR kinase activity); > 40 mM on T790M EGFR kinase (100 μM ATP, read-out: IC50 on T790M EGFR kinase activity); > 40 mM at T790M EGFR kinase (read-out: IC50 on T790M EGFR kinase). In addition, the “inhibition of T790M EGFR kinase” value on T790M EGFR kinase (10 μM or 100 μM ATP, physiological concentrations (<20 mM)) was “did not notably inhibit”. In addition, the “Effect on Prx” value at Peroxiredoxin (Prx) is given as “resulting in impaired enzyme activity”. The “Reduction of disulfide by Trx in the presence of TrxR and NADPH” value on Recombinant human Trx is on record as “readily reduced”. In addition, the Inhibition of farnesylation entry in data set [1] is “inhibits farnesylation in a concentration-dependent manner”. Besides, the “NADPH oxidation by TrxR and Trx” value on TrxR/Trx system was “increases”. In addition, the “Effect on MET” value in data set [2] is “resulting in enzyme inhibition (MET)”. The Tavocept in plasma in data set [3] (41 g/m^2 Tavocept) was ~14 mM. Besides, the “concentrations achieved in the clinic” value in data set [3] (as high as) was ≤ 18000 µM. Moreover, the “plasma levels pharmacologically achievable” value in data set [3] (doses of 18.4 g/m^2 and higher) is given as ≥ 8 mM. Further, the pharmacologically achievable concentrations in data set [3] (in vivo) is reported as 6-10 mM. Besides, in data set [3] (in vivo), the “plasma concentrations achieved in clinical trials” value was 10000 µM. The Cmax (usually the maximum level reached in the sampled fluid or tissue) in data set [3] (read-out: Cmax values in plasma, typical, doses as high as 41 g/m^2) was 10000 µM; in data set [3] (read-out: Cmax values in plasma, dose of 18.4 g/m^2) it was ≥ 10000 µM and 10000 µM; in data set [3] (read-out: typical Cmax values, administered at 18 g/m^2), 10000 µM.

The record behind these values is US20160106439A1, “PNEUMATIC TOURNIQUET” (BIONUMERIK PHARMACEUTICALS, INC., priority 2013, published 2016).
